Measurements from publication PMC5218480 (PLoS ONE, 2017).

Tested on: MV-4-11 cells
Assay: Gene expression microarray analysis (Affymetrix PrimeView) and GSEA
Assay type: cell-based, human
Parameters: RFU PODN (11730768_x_at) / Fold change /veh PODN (11730768_x_at) / RFU LINC00158 (11744669_a_at) / Fold change /veh LINC00158 (11744669_a_at) / RFU DUSP10 (11751237_a_at) / Fold change /veh DUSP10 (11751237_a_at) / RFU ID3 (11757404_x_at) / Fold change /veh ID3 (11757404_x_at) / RFU PLEKHG5 (11737974_s_at) / Fold change /veh PLEKHG5 (11737974_s_at) / RFU LRRC4B (11730491_at) / Fold change /veh LRRC4B (11730491_at) / RFU GIMAP4 (11747438_a_at) / Fold change /veh GIMAP4 (11747438_a_at) / RFU KRT8 (11758183_x_at) / Fold change /veh KRT8 (11758183_x_at) / RFU CNN1 (11734310_a_at) / Fold change /veh CNN1 (11734310_a_at) / RFU VPS37D (11726825_at) / Fold change /veh VPS37D (11726825_at) / RFU C10orf10 (11716522_x_at) / Fold change /veh C10orf10 (11716522_x_at) / RFU KIR2DL2 /// KIR2DL4 /// KIR2DL5A /// KIR2DL5B /// KIR2DS1 /// KIR2DS2 /// KIR2DS3 /// KIR2DS4 /// KIR3DL3 /// KIR3DL3 /// KIR3DS1 (11738374_at) / Fold change /veh KIR2DL2 /// KIR2DL4 /// KIR2DL5A /// KIR2DL5B /// KIR2DS1 /// KIR2DS2 /// KIR2DS3 /// KIR2DS4 /// KIR3DL3 /// KIR3DL3 /// KIR3DS1 (11738374_at) / RFU C1QL1 (11718748_at) / Fold change /veh C1QL1 (11718748_at) / RFU TMPRSS4 (11747572_a_at) / Fold change /veh TMPRSS4 (11747572_a_at) / RFU HAMP (11756126_x_at) / Fold change /veh HAMP (11756126_x_at) / RFU RNFT2 (11725882_a_at) / Fold change /veh RNFT2 (11725882_a_at) / RFU NR4A2 (11747474_a_at) / Fold change /veh NR4A2 (11747474_a_at) / RFU ABCC12 (11746883_a_at) / Fold change /veh ABCC12 (11746883_a_at) / RFU TMEM136 (11760407_x_at) / Fold change /veh TMEM136 (11760407_x_at) / RFU CLDN22 /// WWC2 (11732394_at) / Fold change /veh CLDN22 /// WWC2 (11732394_at) / RFU HLA-DPB1 (11760878_x_at) / Fold change /veh HLA-DPB1 (11760878_x_at) / RFU SPINT1 (11716480_a_at) / Fold change /veh SPINT1 (11716480_a_at) / RFU GAP43 (11754022_s_at) / Fold change /veh GAP43 (11754022_s_at) / RFU A4GNT (11735810_at) / Fold change /veh A4GNT (11735810_at) / RFU PRB3 (11715151_x_at) / Fold change /veh PRB3 (11715151_x_at) / RFU TUBB4B (11761932_at) / Fold change /veh TUBB4B (11761932_at) / RFU CAPN14 (11732068_a_at) / Fold change /veh CAPN14 (11732068_a_at) / RFU TMCC2 (11721928_a_at) / Fold change /veh TMCC2 (11721928_a_at) / RFU IRGQ (11745062_a_at) / Fold change /veh IRGQ (11745062_a_at) / RFU FAM174B (11720279_a_at) / Fold change /veh FAM174B (11720279_a_at) / RFU TMPRSS4 (11748680_a_at) / Fold change /veh TMPRSS4 (11748680_a_at) / RFU FAM212B (11763350_a_at) / Fold change /veh FAM212B (11763350_a_at) / RFU PLEKHG5 (11743358_a_at) / Fold change /veh PLEKHG5 (11743358_a_at) / RFU ZSCAN30 (11745921_a_at) / Fold change /veh ZSCAN30 (11745921_a_at) / RFU CMKLR1 (11741424_a_at) / Fold change /veh CMKLR1 (11741424_a_at) / RFU LOC101060620 /// MAPK8IP1 (11723275_at) / Fold change /veh LOC101060620 /// MAPK8IP1 (11723275_at) / RFU SPTSSB (11747773_x_at) / Fold change /veh SPTSSB (11747773_x_at) / RFU PRSS12 (11739890_at) / Fold change /veh PRSS12 (11739890_at) / RFU BIN1 (11741810_x_at) / Fold change /veh BIN1 (11741810_x_at) / RFU WNT11 (11732464_a_at) / Fold change /veh WNT11 (11732464_a_at) / RFU C10orf10 (11716521_a_at) / Fold change /veh C10orf10 (11716521_a_at) / RFU C5orf56 (11738089_at) / Fold change /veh C5orf56 (11738089_at) / RFU CYB561 (11721691_x_at) / Fold change /veh CYB561 (11721691_x_at) / RFU ANKRD19P (11752326_a_at) / Fold change /veh ANKRD19P (11752326_a_at) / RFU OR2T12 /// OR2T33 /// OR2T8 (11738714_s_at) / Fold change /veh OR2T12 /// OR2T33 /// OR2T8 (11738714_s_at) / RFU VCAN (11748164_a_at) / Fold change /veh VCAN (11748164_a_at) / RFU JSRP1 (11732532_at) / Fold change /veh JSRP1 (11732532_at) / RFU KRTAP10-11 (11738290_x_at) / Fold change /veh KRTAP10-11 (11738290_x_at) / RFU MYO3A (11730013_a_at) / Fold change /veh MYO3A (11730013_a_at) / RFU EBF3 (11725865_a_at) / Fold change /veh EBF3 (11725865_a_at) / RFU CAMK2N1 (11719241_x_at) / Fold change /veh CAMK2N1 (11719241_x_at) / RFU C5orf56 (11738088_a_at) / Fold change /veh C5orf56 (11738088_a_at) / RFU OLFML3 (11715873_a_at) / Fold change /veh OLFML3 (11715873_a_at) / RFU LOC100653217 /// NTM (11731650_a_at) / Fold change /veh LOC100653217 /// NTM (11731650_a_at) / RFU MAPK11 (11762145_a_at) / Fold change /veh MAPK11 (11762145_a_at) / RFU FIZ1 (11724087_x_at) / Fold change /veh FIZ1 (11724087_x_at) / RFU OASL (11726364_x_at) / Fold change /veh OASL (11726364_x_at) / RFU SOX15 (11748057_x_at) / Fold change /veh SOX15 (11748057_x_at) / RFU CD79A (11719716_a_at) / Fold change /veh CD79A (11719716_a_at) / RFU HIST1H1D (11736915_at) / Fold change /veh HIST1H1D (11736915_at) / RFU CASKIN2 (11723855_a_at) / Fold change /veh CASKIN2 (11723855_a_at) / RFU LOC730098 (11760151_x_at) / Fold change /veh LOC730098 (11760151_x_at) / RFU OR4N2 (11742367_at) / Fold change /veh OR4N2 (11742367_at) / RFU PRRT2 (11749266_a_at) / Fold change /veh PRRT2 (11749266_a_at) / RFU SNX32 (11753110_a_at) / Fold change /veh SNX32 (11753110_a_at) / RFU CDHR5 (11726645_a_at) / Fold change /veh CDHR5 (11726645_a_at) / RFU RCAN1 (11760418_a_at) / Fold change /veh RCAN1 (11760418_a_at) / RFU FAM167A (11723789_a_at) / Fold change /veh FAM167A (11723789_a_at) / RFU FAM26E (11764081_at) / Fold change /veh FAM26E (11764081_at) / RFU ISYNA1 (11749810_s_at) / Fold change /veh ISYNA1 (11749810_s_at) / RFU ACY1 (11761880_at) / Fold change /veh ACY1 (11761880_at) / RFU 11764098_at / Fold change /veh 11764098_at / RFU SAMD14 (11745864_x_at) / Fold change /veh SAMD14 (11745864_x_at) / RFU NPB (11741838_a_at) / Fold change /veh NPB (11741838_a_at) / RFU TMPRSS6 (11731388_a_at) / Fold change /veh TMPRSS6 (11731388_a_at) / RFU KRTAP10-2 (11738614_at) / Fold change /veh KRTAP10-2 (11738614_at) / RFU ARHGAP8 /// PRR5-ARHGAP8 (11727945_x_at) / Fold change /veh ARHGAP8 /// PRR5-ARHGAP8 (11727945_x_at) / RFU KRTAP5-7 /// NADSYN1 (11734609_at) / Fold change /veh KRTAP5-7 /// NADSYN1 (11734609_at) / RFU RASL12 (11751679_a_at) / Fold change /veh RASL12 (11751679_a_at) / RFU CDKN2B (11736163_a_at) / Fold change /veh CDKN2B (11736163_a_at) / RFU PRF1 (11729649_at) / Fold change /veh PRF1 (11729649_at) / RFU, ZNF638 /// ZNF638-IT1 / Fold change vs veh, ZNF638 /// ZNF638-IT1 / RFU, PANK3 / Fold change vs veh, PANK3 / RFU, SH3YL1 / Fold change vs veh, SH3YL1 / RFU, ZEB2 / Fold change vs veh, ZEB2 / RFU, NRIP1 / Fold change vs veh, NRIP1 / RFU, PTTG1IP / Fold change vs veh, PTTG1IP / RFU, CAPN2 / Fold change vs veh, CAPN2 / RFU, MED14 / Fold change vs veh, MED14 / RFU, SNORA58 / Fold change vs veh, SNORA58 / RFU, C1orf63 / Fold change vs veh, C1orf63 / RFU, LRRFIP1 / Fold change vs veh, LRRFIP1 / RFU, NDUFAF7 / Fold change vs veh, NDUFAF7 / RFU, SLC12A2 / Fold change vs veh, SLC12A2 / RFU, IBTK / Fold change vs veh, IBTK / RFU, ESF1 / Fold change vs veh, ESF1 / Fold change vs veh, TMEM50B / RFU, TAOK1 / Fold change vs veh, TAOK1 / RFU, ACBD3 / Fold change vs veh, ACBD3 / RFU, TMA16 / Fold change vs veh, TMA16 / RFU, RWDD3 / Fold change vs veh, RWDD3 / RFU, BCAT1 / Fold change vs veh, BCAT1 / RFU, EDEM3 / Fold change vs veh, EDEM3 / RFU, TMEM33 / Fold change vs veh, TMEM33 / RFU, WDR75 / Fold change vs veh, WDR75 / RFU, AHCTF1 / Fold change vs veh, AHCTF1 / RFU, TFRC / Fold change vs veh, TFRC / RFU, ZDHHC17 / Fold change vs veh, ZDHHC17 / RFU, NOM1 / Fold change vs veh, NOM1 / RFU, ARL8B / Fold change vs veh, ARL8B / RFU, ZBTB11 / Fold change vs veh, ZBTB11 / RFU, TAMM41 / Fold change vs veh, TAMM41 / RFU, KIAA1704 /// LOC100996395 / Fold change vs veh, KIAA1704 /// LOC100996395 / RFU, ING1 / Fold change vs veh, ING1 / RFU, TRMT61B / Fold change vs veh, TRMT61B / RFU, FUBP3 / Fold change vs veh, FUBP3 / RFU, TP53 / Fold change vs veh, TP53 / RFU, TNKS2 / Fold change vs veh, TNKS2 / RFU, ZFP14 / Fold change vs veh, ZFP14 / RFU, ACTR2 / Fold change vs veh, ACTR2 / RFU, PPP3R1 / Fold change vs veh, PPP3R1 / RFU, PIK3R1 / Fold change vs veh, PIK3R1 / RFU, HNRNPA1 / Fold change vs veh, HNRNPA1 / RFU, RNF170 / Fold change vs veh, RNF170 / RFU, ZNF28 / Fold change vs veh, ZNF28 / RFU, RNGTT / Fold change vs veh, RNGTT / RFU, OGT / Fold change vs veh, OGT / RFU, BRD1 / Fold change vs veh, BRD1 / RFU, MARS / Fold change vs veh, MARS / RFU, ZNF655 / Fold change vs veh, ZNF655 / RFU, FAHD1 / Fold change vs veh, FAHD1 / RFU, BDP1 / Fold change vs veh, BDP1 / RFU, LRRCC1 / Fold change vs veh, LRRCC1 / RFU, ARID1A / Fold change vs veh, ARID1A / RFU, ZNF146 / Fold change vs veh, ZNF146 / RFU, ZNF330 / Fold change vs veh, ZNF330 / RFU, GPN3 / Fold change vs veh, GPN3 / RFU, C9orf123 / Fold change vs veh, C9orf123 / RFU, N4BP2L2 / Fold change vs veh, N4BP2L2 / RFU, ARFIP1 / Fold change vs veh, ARFIP1 / RFU, FAM179B / Fold change vs veh, FAM179B / RFU, BCL10 / Fold change vs veh, BCL10 / RFU, UHRF1BP1L / Fold change vs veh, UHRF1BP1L / RFU, BET1 / Fold change vs veh, BET1 / RFU, CNOT2 / Fold change vs veh, CNOT2 / RFU, ZNF268 / Fold change vs veh, ZNF268 / Fold change vs veh, ZNF507 / RFU, DGCR2 / Fold change vs veh, DGCR2 / RFU, WDSUB1 / Fold change vs veh, WDSUB1 / Fold change vs veh, HSP90B1 /// MIR3652 / RFU, ADSS / Fold change vs veh, ADSS / RFU, GK / Fold change vs veh, GK / RFU, ZNF148 / Fold change vs veh, ZNF148 / RFU, TAF9 / Fold change vs veh, TAF9 / RFU, SLC1A5 / Fold change vs veh, SLC1A5 / RFU, SLMO2 / Fold change vs veh, SLMO2 / RFU, ABCC4 / Fold change vs veh, ABCC4 / RFU, LOC101060439 /// RAP1B / Fold change vs veh, LOC101060439 /// RAP1B / RFU, RFX7 / Fold change vs veh, RFX7 / RFU, GTPBP10 / Fold change vs veh, GTPBP10 / RFU, CNEP1R1 / Fold change vs veh, CNEP1R1 / RFU, BIVM-ERCC5 /// ERCC5 / Fold change vs veh, BIVM-ERCC5 /// ERCC5 / RFU, ILF3 / Fold change vs veh, ILF3 / RFU 11762660_at / Fold change /veh 11762660_at / RFU VCAN (11757783_s_at) / Fold change /veh VCAN (11757783_s_at) / RFU DDX43 (11728927_at) / Fold change /veh DDX43 (11728927_at) / RFU KRT8 (11758188_x_at) / Fold change /veh KRT8 (11758188_x_at) / RFU NKD1 (11759106_at) / Fold change /veh NKD1 (11759106_at) / RFU SRD5A1 (11742802_a_at) / Fold change /veh SRD5A1 (11742802_a_at) / RFU TPSAB1 /// TPSB2 (11721975_s_at) / Fold change /veh TPSAB1 /// TPSB2 (11721975_s_at) / RFU GSTM3 (11746129_a_at) / Fold change /veh GSTM3 (11746129_a_at) / RFU IL23R (11737362_x_at) / Fold change /veh IL23R (11737362_x_at) / RFU TMEM51 (11727254_a_at) / Fold change /veh TMEM51 (11727254_a_at) / RFU PIWIL2 (11732686_x_at) / Fold change /veh PIWIL2 (11732686_x_at) / RFU ORM1 (11744905_x_at) / Fold change /veh ORM1 (11744905_x_at) / RFU CCDC152 (11743942_at) / Fold change /veh CCDC152 (11743942_at) / RFU ECM1 (11717891_a_at) / Fold change /veh ECM1 (11717891_a_at) / RFU IL23R (11748794_a_at) / Fold change /veh IL23R (11748794_a_at) / RFU TNFAIP8L3 (11732012_x_at) / Fold change /veh TNFAIP8L3 (11732012_x_at) / RFU MBOAT4 (11741988_at) / Fold change /veh MBOAT4 (11741988_at) / RFU 11764193_at / Fold change /veh 11764193_at / RFU TMEM53 (11763286_at) / Fold change /veh TMEM53 (11763286_at) / RFU MAGEB2 (11727129_at) / Fold change /veh MAGEB2 (11727129_at) / RFU TMEM200A (11744735_a_at) / Fold change /veh TMEM200A (11744735_a_at) / RFU CCDC152 (11751479_a_at) / Fold change /veh CCDC152 (11751479_a_at) / RFU FAM211A (11726209_a_at) / Fold change /veh FAM211A (11726209_a_at) / RFU RGS16 (11746705_a_at) / Fold change /veh RGS16 (11746705_a_at) / RFU VCAN (11755009_s_at) / Fold change /veh VCAN (11755009_s_at) / RFU RHOB (11743442_s_at) / Fold change /veh RHOB (11743442_s_at) / RFU RGS16 (11720943_a_at) / Fold change /veh RGS16 (11720943_a_at) / RFU RGS16 (11720944_at) / Fold change /veh RGS16 (11720944_at) / RFU, VPS4B / Fold change vs veh, VPS4B / RFU, CREB1 / Fold change vs veh, CREB1 / RFU, DNAJC13 / Fold change vs veh, DNAJC13 / RFU, GNAQ / Fold change vs veh, GNAQ / RFU, CDK5R1 / Fold change vs veh, CDK5R1 / RFU, ZRANB3 / Fold change vs veh, ZRANB3 / RFU, CUL4A / Fold change vs veh, CUL4A / RFU, CCNY / Fold change vs veh, CCNY / RFU, UFL1 / Fold change vs veh, UFL1 / RFU, COG3 / Fold change vs veh, COG3 / RFU, DIAPH2 / Fold change vs veh, DIAPH2 / RFU, SKA2 / Fold change vs veh, SKA2 / RFU, AFF3 / Fold change vs veh, AFF3 / RFU, LMF1 / Fold change vs veh, LMF1 / RFU, IPO11 / Fold change vs veh, IPO11 / RFU, DFFB / Fold change vs veh, DFFB / RFU, FOXP1 / Fold change vs veh, FOXP1 / RFU, CARD8 / Fold change vs veh, CARD8 / RFU, STRN3 / Fold change vs veh, STRN3 / RFU, ADK / Fold change vs veh, ADK / RFU, RASSF2 / Fold change vs veh, RASSF2 / RFU, WIPF1 / Fold change vs veh, WIPF1 / RFU, LARP1B / Fold change vs veh, LARP1B / RFU, RASA1 / Fold change vs veh, RASA1 / RFU, RB1 / Fold change vs veh, RB1 / RFU, PPFIA1 / Fold change vs veh, PPFIA1 / RFU, MAT2A / Fold change vs veh, MAT2A / RFU, CCT5 / Fold change vs veh, CCT5 / RFU, WDR92 / Fold change vs veh, WDR92 / RFU, CUX1 / Fold change vs veh, CUX1 / RFU, TTC7A / Fold change vs veh, TTC7A / RFU, TMEM135 / Fold change vs veh, TMEM135 / RFU, DEPTOR / Fold change vs veh, DEPTOR / RFU, CPM / Fold change vs veh, CPM / RFU, DNAJB6 / Fold change vs veh, DNAJB6 / RFU, CACNA2D3 / Fold change vs veh, CACNA2D3 / RFU, DTX4 / Fold change vs veh, DTX4 / RFU, TFCP2 / Fold change vs veh, TFCP2 / RFU, GMCL1 /// GMCL1P1 / Fold change vs veh, GMCL1 /// GMCL1P1 / RFU, AEBP2 / Fold change vs veh, AEBP2 / RFU, SNHG1 /// SNORD22 /// SNORD25 /// SNORD26 /// SNORD27 /// SNORD28 /// SNORD29 /// SNORD31 / Fold change vs veh, SNHG1 /// SNORD22 /// SNORD25 /// SNORD26 /// SNORD27 /// SNORD28 /// SNORD29 /// SNORD31 / Fold change (Aza/veh), C12orf56 (ProbeSet 11735607_a_at) / Fold change (ACY-1035/veh), C12orf56 (ProbeSet 11735607_a_at) / Fold change (Aza/veh), FGFR1OP (ProbeSet 11751329_s_at) / Fold change (ACY-1035/veh), FGFR1OP (ProbeSet 11751329_s_at) / Fold change (Aza/veh), VPS36 (ProbeSet 11739960_a_at) / Fold change (ACY-1035/veh), VPS36 (ProbeSet 11739960_a_at) / RFU SYPL1 (11715823_x_at) / Fold change /veh SYPL1 (11715823_x_at) / RFU IGFBP7 (11715501_s_at) / Fold change /veh IGFBP7 (11715501_s_at) / RFU REEP3 (11722064_at) / Fold change /veh REEP3 (11722064_at) / RFU IGLL1 (11728026_x_at) / Fold change /veh IGLL1 (11728026_x_at): dose or concentration left out as unconfirmed
Details: MV-4-11 cells, 48 hours

SMILES: Nc1ncn([C@@H]2O[C@H](CO)[C@@H](O)[C@H]2O)c(=O)n1 [azacitidine]
- RFU CLDN22 /// WWC2 (11732394_at): 8.78 RFU
